From patent US20040067561A1, “Process for the production of L-lysine using coryneform bacteria” (priority 2002, published 2004)

Tested on: Corynebacterium glutamicum strain DSM13994_Hdap_s
Test: Screening on LB agar plates containing 4-hydroxydiaminopimelic acid (growth of colonies)
Format: cell-based
Settings: 10 g/l in LB agar, observed over 48 hours; UV mutant clone DSM13994_Hdap_s compared to parent DSM13994
Method: For screening on colonies that are sensitive to 4-hydroxy-diaminopimelic acid, the strain DSM13994 after UV mutagenesis (Sambrook et al., Molecular Cloning: A Laboratory Manual. 2nd Edition, Cold Spring Harbor, New York, 1989) is plated out on LB agar plates containing 4-hydroxydiaminopimelic acid. The agar plates are supplemented with 10 g/l of 4-hydroxydiaminopimelic acid. The growth of the colonies is observed over 48 hours. At this concentration mutants sensitive to 4-hydroxydiamino-pimelic acid may be differentiated from the unaltered parent strain by a delayed growth. […] The strain is identified as DSM13994_Hdap_s.

## N[C@H](CC(O)C[C@H](N)C(=O)O)C(=O)O (stereo partly shown) [4-hydroxydiaminopimelic acid]
  growth of the colonies: substantially delayed growth
